This passage reports IC50 and Ki results from patent US6586405B2, “Non-covalent inhibitors of urokinase and blood vessel formation” (Corvas International, Inc., priority 2000, dated 2003).

Common to all, as to type: biochemical
In one experiment the target is T1, human plasmin (Homo sapiens, UniProt P00747).
T1 construct: Purified human plasmin was obtained from Enzyme Research Laboratories, Inc; purchased Enzyme Research Laboratories, Inc
The experiment can be described thus: Plasmin assay, chromogenic substrate S-2366. The note with it: 30 minute incubation, HBSA buffer, plasmin 1.0 nM. As to the method: (§1) The ability of compounds of the present invention to act as selective inhibitors of urokinase catalytic activity was assessed by determining the concentration of test compound which inhibited the activity of this enzyme by 50%, (IC50), and comparing this value to that determined for all or some of the following related serine proteases: recombinant tissue plasminogen activator (rt-PA), plasmin, activated protein C, chymotrypsin, factor Xa, thrombin and trypsin.
(§2) The buffer used for all assays was HBSA (10 mM HEPES, pH 7.5, 150 mM sodium chloride, 0.1% bovine serum albumin).
(§3) The assay for IC50 determinations was conducted by combining in appropriate wells of a Corning microtiter plate, 50 microliters of HBSA, 50 microliters of the test compound at a specified concentration (covering a broad concentration range) diluted in HBSA (or HBSA alone for VO (uninhibited velocity) measurement), and 50 microliters of the enzyme diluted in HESA. Following a 30 minute incubation at ambient temperature, 50 microliters of the substrate at the concentrations specified below were added to the wells, yielding a final total volume of 200 microliters (about 4 times Km). The initial velocity of chromogenic substrate hydrolysis was measured by the change in absorbance at 405 nm using a Thermo Max® Kinetic Microplate Reader over a 5 minute period in which less than 5% of the added substrate was utilized. The concentration of added inhibitor which caused a 50% decrease in the initial rate of hydrolysis was defined as the IC50 value. Ki may be calculated from the IC50 value.
Plasmin catalytic activity was determined using the chromogenic substrate, S-2366 [L-pyroglutamyl-L-prolyl-L-arginine-p-nitroaniline hydrochloride], which was obtained from DiaPharma Group. The substrate was made up in deionized water followed by dilution in HBSA prior to the assay in which the final concentration was 300 micromolar (about 2.5-times Km). Purified human plasmin was obtained from Enzyme Research Laboratories, Inc. The enzyme was diluted into HBSA prior to assay in which the final concentration was 1.0 nM.

In a further experiment the target is T2, Urokinase (Abbokinase) (Homo sapiens, UniProt P00749).
T2 construct: purchased Abbott Laboratories (manufacturer), obtained from Priority Pharmaceuticals
Briefly: Urokinase assay, chromogenic substrate S-2444. The note with it: Ki calculated using the IC50 value; 30 minute incubation, HBSA buffer; read-out: Ki uPA. As to the method: as §1, §2, §3
Urokinase catalytic activity was determined using the chromogenic substrate […] S-2444 (L-Pyroglutamyl-glycyl-L-arginine-p-nitroaniline hydrochloride), obtained from DiaPharma Group, Inc. Urokinase (Abbokinase), manufactured by Abbott Laboratories, was obtained from Priority Pharmaceuticals and diluted to 750 pM in the HBSA assay buffer prior to use. The assay buffer was HBS (10 mM HEPES, 150 mM sodium chloride pH 7.4) with 0.1% BSA. Ki was calculated using the IC50 value.

The target in another experiment is T3, Human rt-PA (Activase) (Homo sapiens, UniProt P00750).
T3 construct: purchased Genentech Inc
Briefly: Recombinant tissue plasminogen activator (rt-PA) assay, chromogenic substrate Pefachrome t-PA. To be noted: 30 minute incubation, HBSA buffer, rt-PA 1.0 nM. As to the method:
as §1, §2, §3
rt-PA catalytic activity was determined using the substrate, Pefachrome t-PA (CH3SO2-D-hexahydrotyrosine-glycyl-L-arginine-p-nitroaniline, obtained from Pentapharm Ltd.). The substrate was made up in deionized water followed by dilution in HBSA prior to the assay in which the final concentration was 500 micromolar (about 3-times Km). Human rt-PA (Activase®) was obtained from Genentech Inc. The enzyme was reconstituted in deionized water and diluted into HBSA prior to the assay in which the final concentration was 1.0 nM.

T3 sequence (P00750 36-562): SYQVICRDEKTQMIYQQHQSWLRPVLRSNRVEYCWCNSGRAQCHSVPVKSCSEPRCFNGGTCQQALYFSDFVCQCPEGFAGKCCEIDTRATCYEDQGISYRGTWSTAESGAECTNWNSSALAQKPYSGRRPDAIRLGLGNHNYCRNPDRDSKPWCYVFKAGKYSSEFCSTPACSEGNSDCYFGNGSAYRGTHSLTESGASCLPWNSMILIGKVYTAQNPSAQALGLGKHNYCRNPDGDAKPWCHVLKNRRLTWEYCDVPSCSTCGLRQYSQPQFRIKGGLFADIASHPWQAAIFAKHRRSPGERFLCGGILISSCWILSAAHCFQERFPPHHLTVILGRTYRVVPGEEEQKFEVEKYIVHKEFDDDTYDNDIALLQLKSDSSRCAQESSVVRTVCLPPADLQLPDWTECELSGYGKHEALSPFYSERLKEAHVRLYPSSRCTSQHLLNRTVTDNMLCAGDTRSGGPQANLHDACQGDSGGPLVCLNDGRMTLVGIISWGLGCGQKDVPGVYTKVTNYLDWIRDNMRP
T1 sequence (P00747 581-810 limits assumed): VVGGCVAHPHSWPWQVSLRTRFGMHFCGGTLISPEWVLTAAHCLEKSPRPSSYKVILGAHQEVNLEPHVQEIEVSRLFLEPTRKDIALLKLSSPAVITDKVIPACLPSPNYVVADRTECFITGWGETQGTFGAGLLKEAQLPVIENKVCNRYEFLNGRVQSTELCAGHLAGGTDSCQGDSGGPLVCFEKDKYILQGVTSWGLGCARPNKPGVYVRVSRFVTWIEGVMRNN
T1 sequence (P00747 97-580 partner limits assumed): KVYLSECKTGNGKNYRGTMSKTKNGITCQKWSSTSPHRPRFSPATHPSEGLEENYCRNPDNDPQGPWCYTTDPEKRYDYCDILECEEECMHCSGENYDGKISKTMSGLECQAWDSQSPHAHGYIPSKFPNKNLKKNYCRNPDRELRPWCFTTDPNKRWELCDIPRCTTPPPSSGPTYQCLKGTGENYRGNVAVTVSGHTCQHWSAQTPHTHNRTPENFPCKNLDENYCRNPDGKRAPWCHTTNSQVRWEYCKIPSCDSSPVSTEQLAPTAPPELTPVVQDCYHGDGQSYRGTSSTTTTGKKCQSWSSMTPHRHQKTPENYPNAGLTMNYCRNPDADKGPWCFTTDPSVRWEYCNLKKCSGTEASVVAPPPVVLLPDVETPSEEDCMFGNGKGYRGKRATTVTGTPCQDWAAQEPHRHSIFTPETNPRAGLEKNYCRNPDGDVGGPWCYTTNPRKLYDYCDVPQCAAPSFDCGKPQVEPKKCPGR

The term IC50 denotes the concentration needed to halve the response being measured. Usually Ki stands for the equilibrium dissociation constant of an inhibitor or competing ligand from its target. With `N=C(N)c1ccc(CNC(=O)C2C=CCN2C(=O)C(CO)NS(=O)(=O)Cc2ccccc2)s1` (mixture of isomers) [U], the concentration for half-maximal inhibition (IC50) against human plasmin and on Human rt-PA (Activase) was 250 to 2500 nM in each case. Moreover, at Urokinase (Abbokinase), the Ki was below 100 nM.

Turning to `C[C@H](NC(=O)[C@@H](CO)NS(=O)(=O)Cc1ccccc1)C(=O)NCc1ccc(C(=N)N)cn1` [AO], the IC50 at human plasmin and at Human rt-PA (Activase) was above 2500 nM each time. In addition, at Urokinase (Abbokinase), the Ki was 100 to 250 nM.

As for `CCCCS(=O)(=O)NC(CO)C(=O)N1CC2CC2C1C(=O)NCc1ccc(C(=N)N)cc1` (mixture of isomers) [AA], the half-maximal inhibitory concentration (IC50) on human plasmin and on Human rt-PA (Activase) was above 2500 nM each time. For the same compound, at Urokinase (Abbokinase), the Ki is below 100 nM.

Turning to `C[C@H](NC(=O)[C@@H](CO)NS(=O)(=O)Cc1ccccc1)C(=O)NCc1ccc(C(=N)N)cc1` [AJ], the IC50 on human plasmin and at Human rt-PA (Activase) was above 2500 nM in each case.

Turning to `CCC[C@H](NC(=O)[C@@H](CO)NS(=O)(=O)Cc1ccccc1)C(=O)NCc1ccc(C(=N)N)cc1` [AS], the IC50 at human plasmin and on Human rt-PA (Activase) was above 2500 nM each time. Further, the inhibition constant (Ki) on Urokinase (Abbokinase) is below 100 nM.

Take `C[C@H](NC(=O)[C@@H](CO)NS(=O)(=O)Cc1ccccc1)C(=O)NCc1ccc(NC(=N)NC(=O)OC(C)(C)C)cc1` [AM]: the half-inhibitory concentration (IC50) at human plasmin and at Human rt-PA (Activase) was above 2500 nM throughout. Also, on Urokinase (Abbokinase), the Ki was below 100 nM.

With `C[C@@H](NC(=O)[C@@H](CO)NS(=O)(=O)c1cccc2ccccc12)C(=O)NCc1ccc(C(=N)N)cc1` [AP], the IC50 on human plasmin and at Human rt-PA (Activase) was above 2500 nM throughout. Besides, the Ki on Urokinase (Abbokinase) is below 100 nM.

In the case of `CCCCS(=O)(=O)N[C@H](CO)C(=O)N1CC2CC2C1C(=O)NCc1ccc(C(=N)N)cc1` (stereo partly drawn) [Q], the concentration for half-maximal inhibition (IC50) against human plasmin and on Human rt-PA (Activase) was above 2500 nM in each case. In addition, the Ki at Urokinase (Abbokinase) was below 100 nM.

For the compound `N=C(N)c1ccc(CNC(=O)C2C3CC3CN2C(=O)C(CO)NS(=O)(=O)Cc2ccccc2)cc1` (stereo not drawn) [AD], the IC50 at human plasmin is 250 to 2500 nM; at Human rt-PA (Activase), above 2500 nM. The inhibition constant (Ki) on Urokinase (Abbokinase) is below 100 nM.

Regarding `CC[C@H](NC(=O)[C@@H](CO)NS(=O)(=O)Cc1ccccc1)C(=O)NCc1ccc(C(=N)N)cc1` [AT], the IC50 at human plasmin and on Human rt-PA (Activase) was above 2500 nM each time. Further, the Ki on Urokinase (Abbokinase) was below 100 nM.

For `N=C(N)c1ccc(CNC(=O)[C@@H]2C=CCN2C(=O)[C@@H](CO)NS(=O)(=O)Cc2ccccc2)cc1` [K], the IC50 against human plasmin is 250 to 2500 nM; on Human rt-PA (Activase) it was above 2500 nM. Further, at Urokinase (Abbokinase), the inhibitory constant (Ki) was below 100 nM.

Turning to `N=C(N)c1ccc(CNC(=O)[C@@H]2CCCN2C(=O)[C@@H](CO)NS(=O)(=O)Cc2ccccc2)cc1` [J], the IC50 is 250 to 2500 nM at human plasmin and above 2500 nM on Human rt-PA (Activase).

With `C[C@H](NC(=O)[C@@H](C)NS(=O)(=O)Cc1ccccc1)C(=O)NCc1ccc(C(=N)N)cc1` [AK], the IC50 at human plasmin and on Human rt-PA (Activase) was above 2500 nM throughout. The inhibition constant Ki at Urokinase (Abbokinase) is below 100 nM.

For the compound `CCCCS(=O)(=O)NC(CO)C(=O)N1CC=CC1C(=O)NCc1ccc(C(=N)N)cc1` (mixture of isomers) [O], the IC50 on human plasmin and on Human rt-PA (Activase) was above 2500 nM in each case. Besides, the inhibitory constant (Ki) on Urokinase (Abbokinase) was below 100 nM.

In the case of `C[C@H](NC(=O)[C@@H](CO)NS(=O)(=O)Cc1ccccc1)C(=O)NCc1ccc(C(=N)N)s1` [AH], the IC50 at human plasmin was above 2500 nM; on Human rt-PA (Activase), 250 to 2500 nM. Besides, the Ki on Urokinase (Abbokinase) was below 100 nM.

`N=C(N)c1ccc(CNC(=O)[C@@H]2C=CCN2C(=O)[C@@H](CO)NS(=O)(=O)CCc2ccccc2)cc1` [F]: on Urokinase (Abbokinase), the inhibition constant (Ki) is below 100 nM. Also, at Human rt-PA (Activase), the concentration for half-maximal inhibition (IC50) was above 2500 nM.

`C[C@H](NC(=O)[C@@H](CO)NS(C)(=O)=O)C(=O)NCc1ccc(C(=N)N)cc1` [AU]: the IC50 against human plasmin and on Human rt-PA (Activase) was above 2500 nM throughout. In addition, on Urokinase (Abbokinase), the Ki was 250 to 2500 nM.

With `C[C@H](NC(=O)[C@@H](CO)NS(=O)(=O)c1ccc2ccccc2c1)C(=O)NCc1ccc(C(=N)N)cc1` [AI], the half-inhibitory concentration (IC50) against human plasmin and on Human rt-PA (Activase) was above 2500 nM in each case. The inhibition constant (Ki) on Urokinase (Abbokinase) is 100 to 250 nM.

Take `CCCCS(=O)(=O)N[C@H](CO)C(=O)N[C@@H](C)C(=O)NCc1ccc(C(=N)N)s1` [L]: the IC50 against human plasmin and on Human rt-PA (Activase) was above 2500 nM in each case. On Urokinase (Abbokinase), the Ki was below 100 nM.

As for `N=C(N)c1ccc(CNC(=O)[C@@H]2CCN2C(=O)[C@@H](CO)NS(=O)(=O)Cc2ccccc2)cc1` [R], the IC50 at human plasmin and at Human rt-PA (Activase) was above 2500 nM in each case. For the same compound, the inhibition constant (Ki) on Urokinase (Abbokinase) is below 100 nM.

For `CCCCS(=O)(=O)N[C@H](CO)C(=O)N[C@@H](C)C(=O)NCCCCNC(=N)N` [B], the half-maximal inhibitory concentration (IC50) against human plasmin and on Human rt-PA (Activase) was above 2500 nM throughout. Besides, the Ki on Urokinase (Abbokinase) is 250 to 2500 nM.

`C[C@H](NC(=O)[C@@H](CO)NS(=O)(=O)Cc1ccccc1)C(=O)NCc1ccc(NC(=N)N)s1` [AW]: the IC50 against human plasmin and on Human rt-PA (Activase) was above 2500 nM each time. Also, the inhibitory constant (Ki) at Urokinase (Abbokinase) is 250 to 2500 nM.

As to `N=C(N)Nc1ccc(CNC(=O)[C@@H]2C=CCN2C(=O)[C@@H](CO)NS(=O)(=O)Cc2ccccc2)cc1` [AV], the IC50 against human plasmin and at Human rt-PA (Activase) was above 2500 nM throughout. Besides, at Urokinase (Abbokinase), the inhibition constant Ki is below 100 nM.

As to `CCCCS(=O)(=O)N[C@H](CO)C(=O)N[C@@H](C)C(=O)NCc1ccc(C(=N)N)cc1` [A], the IC50 against human plasmin and on Human rt-PA (Activase) was above 2500 nM throughout. In addition, the Ki at Urokinase (Abbokinase) is below 100 nM.

For `CCCCS(=O)(=O)NC(CO)C(=O)N1CCCC1C(=O)NCc1ccc(C(=N)N)cc1` (mixture of isomers) [N], the IC50 against human plasmin and on Human rt-PA (Activase) was above 2500 nM in each case. The Ki on Urokinase (Abbokinase) is below 100 nM.

Turning to `C[C@H](NC(=O)[C@@H](CO)NS(=O)(=O)Cc1ccccc1)C(=O)NCc1ccc(NC(=N)N)cc1` [AN], the IC50 against human plasmin and on Human rt-PA (Activase) was above 2500 nM in each case. For the same compound, the Ki at Urokinase (Abbokinase) was below 100 nM.

On to `C=CC[C@H](NC(=O)[C@@H](CO)NS(=O)(=O)Cc1ccccc1)C(=O)NCc1ccc(C(=N)N)cc1` [AL], for which the IC50 at human plasmin and on Human rt-PA (Activase) was above 2500 nM in each case. Moreover, the inhibition constant Ki at Urokinase (Abbokinase) is below 100 nM.

`N=C(N)c1ccc(CNC(=O)[C@@H]2C3CC3CN2C(=O)[C@@H](CO)NS(=O)(=O)Cc2ccccc2)cc1` (stereo partly drawn) [T]: the IC50 was 250 to 2500 nM at human plasmin and above 2500 nM on Human rt-PA (Activase). In addition, the inhibitory constant (Ki) at Urokinase (Abbokinase) is below 100 nM.

In the case of `N=C(N)Nc1ccc(CNC(=O)Cn2cccc(NS(=O)(=O)Cc3ccccc3)c2=O)cc1` [AR], the concentration for half-maximal inhibition (IC50) at human plasmin and at Human rt-PA (Activase) was above 2500 nM each time. On Urokinase (Abbokinase), the Ki was 250 to 2500 nM.

As for `N=C(N)c1ccc(CNC(=O)[C@@H]2CCN2C(=O)[C@@H](CO)NS(=O)(=O)CCc2ccccc2)cc1` [S], the half-maximal inhibitory concentration (IC50) at human plasmin and at Human rt-PA (Activase) was above 2500 nM each time. On Urokinase (Abbokinase), the Ki is 100 to 250 nM.

For the compound `CCCCS(=O)(=O)N[C@H](CO)C(=O)N1CCC1C(=O)NCc1ccc(C(=N)N)cc1` (stereo partly drawn) [Z], the half-maximal inhibitory concentration (IC50) against human plasmin and at Human rt-PA (Activase) was above 2500 nM throughout. Moreover, on Urokinase (Abbokinase), the Ki was below 100 nM.

`CCCCS(=O)(=O)NC(CO)C(=O)NC(C)C(=O)NCc1ccc(NC(=N)N)cc1` (stereo not drawn) [AG]: the half-maximal inhibitory concentration (IC50) against human plasmin and on Human rt-PA (Activase) was above 2500 nM each time. Besides, on Urokinase (Abbokinase), the Ki was below 100 nM.
